This note sets out measurements from US20260285872A1, “COMPOUNDS AND METHODS FOR DEGRADING GSPT1” (priority 2023, published 2026).

The structures appear in SMILES notation. Like-named read-outs stand apart in the source and are kept apart here.

For assay [1], the target named is T1, GSPT1 (Homo sapiens, UniProt P15170+Q96SW2). Nature of the assay: GSPT1 degradation, Western Blot, MV-4-11 cells, 0.1 μM, 4 hours. It is filed as cell-based. As to conditions: MV4-11, % reduction of GSPT1 compared to DMSO, normalized to GAPDH, read-out: GSPT1 degradation classification. Here is the method: Compounds of the present disclosure was added to cells (final DMSO concentration of 0.1%) and incubated for 4 hours. GSPT1 levels were determined in MV-4-11 cells using Western Blot analysis. […] Protein levels were normalized to GAPDH levels.
The efficacy of GSPT1 degradation of a part of compounds of the present disclosure was determined by treating MV-4-11 cells at 0.1 μM (final DMSO concentration of 0.1%) for 4 hours. GSPT1 levels were determined using Western Blot and normalized to GAPDH levels.
For orientation: In western blotting, separated proteins are transferred to a membrane and probed.

The next assay has as its system MV-4-11 cells. Nature of the assay: AML cell viability, CellTiter-Glo, MV-4-11 cells. It is filed as cell-based. The settings on record: Homo sapiens, MV4-11, CellTiter-Glo, read-out: Cell viability classification. Here is the method:
MV4-11 cells were obtained from ATCC and grown in IMDM supplemented with 10% FBS. The cells were maintained at 37° C. under 5% CO2. […] The luminescence was normalized to that of DMSO-treated samples. IC50 values were obtained using three-parameter non-linear regressions using Prism (GraphPad). […] Cell viability was measured using the CellTiter-Glo reagent after 44 hours of treatment. […] MV4-11 cells were obtained from ATCC and grown in IMDM supplemented with 10% FBS. The cells were maintained at 37° C. under 5% CO2. […] Cell viability was measured using the CellTiter-Glo reagent after 44 hours of treatment.
For orientation: Cellular ATP, detected with luciferase, serves as a proxy for viable cell number.

Assay [2] concerns the target T1, GSPT1. The assay is described as follows: cell-based. As to conditions: read-out: GSPT1 degradation classification.
The test system of the next assay is HCC827 cells. Nature of the assay: NSCLC cell viability, CellTiter-Glo, HCC827 cells. Format: cell-based. The settings on record: Homo sapiens, read-out: Cell viability classification. The procedure: (§1) HCC827 cells were obtained from Korean Cell Line Bank (KCLB) and grown in RPMI supplemented with 10% FBS. The cells were maintained at 37° C. under 5% CO2.
(§2) The efficacy of the present disclosure to reduce viability of Non-Small Cell Lung Cancer (NSCLC) cells was assessed using CellTiter-Glo Cell Viability Assay (Promega) according to the manufacturer's protocol. […] The luminescence was normalized to that of DMSO-treated samples. IC50 values were obtained using three-parameter non-linear regressions using Prism (GraphPad).
The efficacy of additional compounds of the present disclosure in reducing HCC827 cell viability was determined by treating HCC827 cells at various concentrations (final DMSO concentration of 0.1%). Cell viability was measured using the CellTiter-Glo reagent after 72 hours of treatment.

Assay [3] deals with T1, GSPT1. The assay is described as follows: GSPT1 degradation, Western Blot, HCC827 cells, 1 μM, 16 hours. It is filed as cell-based. As to conditions: % reduction of GSPT1 compared to DMSO, normalized to GAPDH, read-out: GSPT1 degradation classification. Here is the method:
as §1
Compounds of the present disclosure was added to cells (final DMSO concentration of 0.1%) and incubated for 16 hours. GSPT1 levels were determined in HCC827 cells using Western Blot analysis. […] Protein levels were normalized to GAPDH levels.
The efficacy of GSPT1 degradation of a part of compounds of the present disclosure was determined by treating HCC827 cells at 1 μM (final DMSO concentration of 0.1%) for 16 hours. GSPT1 levels were determined using Western Blot and normalized to GAPDH levels.

A further assay concerns A549 cells. Nature of the assay: NSCLC cell viability, CellTiter-Glo, A549 cells. Format: cell-based. As to conditions: Homo sapiens, 72 hours of treatment, read-out: Cell viability classification. Here is the method: A549 cells were obtained from Korean Cell Line Bank (KCLB) and grown in RPMI supplemented with 10% FBS. The cells were maintained at 37° C. under 5% CO2.
as §2
The efficacy of additional compounds of the present disclosure in reducing A549 cell viability was determined by treating A549 cells at various concentrations (final DMSO concentration of 0.1%). Cell viability was measured using the CellTiter-Glo reagent after 72 hours of treatment.

Where [4] appears, read: TABLE 2, MV-4-11 cells assumed, 44 hours.
Where [5] appears, read: MV-4-11 cells, 44 hours of treatment, TABLE 1.
Setting [6] is: MV4-11, MV-4-11 cells, 1 μM, 6 hours, Western Blot, % reduction of GSPT1 compared to DMSO, normalized to GAPDH.
The mark [7] stands for this setting: HCC827 cells, CellTiter-Glo, 72 hours of treatment.

T1 sequence (P15170 whole entry): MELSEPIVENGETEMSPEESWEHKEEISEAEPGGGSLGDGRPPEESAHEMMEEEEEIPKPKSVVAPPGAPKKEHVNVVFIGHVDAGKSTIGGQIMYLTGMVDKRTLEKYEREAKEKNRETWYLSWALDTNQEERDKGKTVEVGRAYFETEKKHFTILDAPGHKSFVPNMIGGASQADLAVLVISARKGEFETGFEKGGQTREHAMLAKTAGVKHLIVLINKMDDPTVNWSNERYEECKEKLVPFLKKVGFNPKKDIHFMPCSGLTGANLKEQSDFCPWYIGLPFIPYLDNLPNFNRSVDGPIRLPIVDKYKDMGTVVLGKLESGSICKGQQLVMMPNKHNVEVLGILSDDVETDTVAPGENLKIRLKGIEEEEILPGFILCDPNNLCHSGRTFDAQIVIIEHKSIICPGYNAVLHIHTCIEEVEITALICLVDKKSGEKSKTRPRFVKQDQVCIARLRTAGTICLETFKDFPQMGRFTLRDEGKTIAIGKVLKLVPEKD
T1 sequence (Q96SW2 whole entry): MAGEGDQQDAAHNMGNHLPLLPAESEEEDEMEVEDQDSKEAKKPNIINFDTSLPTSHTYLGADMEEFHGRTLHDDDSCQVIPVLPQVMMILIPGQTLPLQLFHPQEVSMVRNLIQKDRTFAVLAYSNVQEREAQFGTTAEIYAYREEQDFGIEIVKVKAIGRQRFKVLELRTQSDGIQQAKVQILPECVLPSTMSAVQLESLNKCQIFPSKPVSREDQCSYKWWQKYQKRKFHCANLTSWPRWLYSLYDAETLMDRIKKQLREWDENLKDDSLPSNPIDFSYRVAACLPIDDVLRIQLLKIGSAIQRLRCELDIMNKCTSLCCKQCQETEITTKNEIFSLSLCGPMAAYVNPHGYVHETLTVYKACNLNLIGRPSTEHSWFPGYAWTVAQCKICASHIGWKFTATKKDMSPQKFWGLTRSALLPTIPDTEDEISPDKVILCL
T1 sequence (Q16531 whole entry partner): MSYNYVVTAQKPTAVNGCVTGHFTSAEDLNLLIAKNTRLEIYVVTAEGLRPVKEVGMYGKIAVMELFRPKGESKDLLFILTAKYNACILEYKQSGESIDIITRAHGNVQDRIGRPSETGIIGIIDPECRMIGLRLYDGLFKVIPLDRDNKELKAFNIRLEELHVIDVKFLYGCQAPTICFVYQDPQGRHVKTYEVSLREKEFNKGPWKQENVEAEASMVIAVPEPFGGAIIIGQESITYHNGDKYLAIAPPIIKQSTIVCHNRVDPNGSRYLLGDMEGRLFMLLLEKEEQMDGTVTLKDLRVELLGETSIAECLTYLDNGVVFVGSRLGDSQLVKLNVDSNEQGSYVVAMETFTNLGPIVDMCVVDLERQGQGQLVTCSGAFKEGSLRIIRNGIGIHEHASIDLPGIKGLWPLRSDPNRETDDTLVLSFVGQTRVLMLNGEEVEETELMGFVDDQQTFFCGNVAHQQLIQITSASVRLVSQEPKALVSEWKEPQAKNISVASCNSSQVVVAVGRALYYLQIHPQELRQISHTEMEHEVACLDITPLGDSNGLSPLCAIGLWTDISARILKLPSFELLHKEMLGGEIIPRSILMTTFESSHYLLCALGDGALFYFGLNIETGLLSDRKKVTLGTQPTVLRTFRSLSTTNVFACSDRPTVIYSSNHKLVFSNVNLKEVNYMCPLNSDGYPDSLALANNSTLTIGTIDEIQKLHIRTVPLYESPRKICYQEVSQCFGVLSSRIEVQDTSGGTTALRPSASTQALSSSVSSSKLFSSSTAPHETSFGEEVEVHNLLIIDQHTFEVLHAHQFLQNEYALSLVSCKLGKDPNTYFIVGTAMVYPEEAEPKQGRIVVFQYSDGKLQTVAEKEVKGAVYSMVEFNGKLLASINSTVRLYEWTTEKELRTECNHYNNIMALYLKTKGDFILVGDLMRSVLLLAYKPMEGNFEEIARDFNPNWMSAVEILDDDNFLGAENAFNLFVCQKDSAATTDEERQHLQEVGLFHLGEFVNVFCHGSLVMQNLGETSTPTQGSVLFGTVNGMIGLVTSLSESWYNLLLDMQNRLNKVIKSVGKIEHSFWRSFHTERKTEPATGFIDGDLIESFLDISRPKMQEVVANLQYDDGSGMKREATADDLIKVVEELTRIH

On to `O=C1CCC(N2Cc3cc(C(=O)N4CCc5c(F)ccc(F)c54)ccc3C2=O)C(=O)N1` (centres unmarked) [Example 63, 3-(5-(4,7-difluoroindoline-1-carbonyl)-1-oxoisoindolin-2-yl)piperidine-2,6-dione], for which the inhibition at 0.1 µM at GSPT1 [1] was below 50%. The IC50 in the assay with MV-4-11 cells (setting [4]) lay within 100 to 1000 nM. For `O=C1CCC(N2Cc3cc(C(=O)N4CCc5c4ccc(F)c5F)ccc3C2=O)C(=O)N1` (centres unmarked) [Example 65, 3-(5-(4,5-difluoroindoline-1-carbonyl)-1-oxoisoindolin-2-yl)piperidine-2,6-dione], the inhibition at 0.1 µM on GSPT1 [1] was below 50%. Besides, the IC50 in the assay on MV-4-11 cells (setting [4]) was below 100 nM. The matching figures for `O=C1CCC(N2Cc3cc(C(=O)N4CCc5c4ccc(Cl)c5F)ccc3C2=O)C(=O)N1` (centres unmarked) [Example 66, 3-(5-(5-chloro-4-fluoroindoline-1-carbonyl)-1-oxoisoindolin-2-yl)piperidine-2,6-dione]: below 50% and below 100 nM. For `O=C1CCC(N2Cc3cc(C(=O)Nc4csc5cccc(F)c45)ccc3C2=O)C(=O)N1` (centres unmarked) [Example 67, 2-(2,6-dioxopiperidin-3-yl)-N-(4-fluorobenzo[b]thiophen-3-yl)-1-oxoisoindoline-5-carboxamide], in that order: 50 to 75% and below 100 nM.

Take `O=C1CCC(N2Cc3cc(C(=O)Nc4csc5ccc(F)cc45)ccc3C2=O)C(=O)N1` (centres unmarked) [Example 68, 2-(2,6-dioxopiperidin-3-yl)-N-(5-fluorobenzo[b]thiophen-3-yl)-1-oxoisoindoline-5-carboxamide]: at GSPT1 [1], the inhibition at 0.1 µM is 50 to 75%. Further, the IC50 with MV-4-11 cells (setting [4]) was below 100 nM.

As for `O=C1CCC(N2Cc3cc(C(=O)Nc4csc5cc(F)ccc45)ccc3C2=O)C(=O)N1` (centres unmarked) [Example 69, 2-(2,6-dioxopiperidin-3-yl)-N-(6-fluorobenzo[b]thiophen-3-yl)-1-oxoisoindoline-5-carboxamide], on GSPT1 [1], the inhibition at 0.1 µM lay in the range of 50 to 75%. Moreover, the IC50 in the assay on MV-4-11 cells (setting [4]) was below 100 nM.

On to `O=C1CCC(N2Cc3cc(C(=O)Nc4csc5c(F)cccc45)ccc3C2=O)C(=O)N1` (centres unmarked) [Example 70, 2-(2,6-dioxopiperidin-3-yl)-N-(7-fluorobenzo[b]thiophen-3-yl)-1-oxoisoindoline-5-carboxamide], for which, on GSPT1 [1], the inhibition at 0.1 µM is below 50%. For the same compound, the IC50 with MV-4-11 cells (setting [4]) is below 100 nM. For `O=C1CCC(N2Cc3cc(C(=O)NC45CC(F)(C4)C5)ccc3C2=O)C(=O)N1` (centres unmarked) [Example 71, 2-(2,6-dioxopiperidin-3-yl)-N-(3-fluorobicyclo[1.1.1]pentan-1-yl)-1-oxoisoindoline-5-carboxamide], in that order: below 50% and above 1000 nM. As for `O=C1CCC(N2Cc3cc(C(=O)NC45CCC(F)(CC4)CC5)ccc3C2=O)C(=O)N1` (centres unmarked) [Example 72, 2-(2,6-dioxopiperidin-3-yl)-N-(4-fluorobicyclo[2.2.2]octan-1-yl)-1-oxoisoindoline-5-carboxamide], the inhibition at 0.1 µM at GSPT1 [1] fell in the range of 50 to 75%. In addition, in the assay on MV-4-11 cells (setting [4]), the IC50 was in the range of 100 to 1000 nM. For `O=C1CCC(N2Cc3cc(C(=O)N4CCc5ccc(C(F)(F)F)cc54)ccc3C2=O)C(=O)N1` (centres unmarked) [Example 79, 3-(1-oxo-5-(6-(trifluoromethyl)indoline-1-carbonyl)isoindolin-2-yl)piperidine-2,6-dione], the inhibition at 1 µM on GSPT1 [2] (MV4-11, 6 h) was in the range of 50 to 75%. The IC50 in the assay on MV-4-11 cells (setting [5]) was 100 to 1000 nM. Take `O=C1CCC(N2Cc3cc(C(=O)N4CCc5cc(OC(F)(F)F)ccc54)ccc3C2=O)C(=O)N1` (centres unmarked) [Example 80, 3-(1-oxo-5-(5-(trifluoromethoxy)indoline-1-carbonyl)isoindolin-2-yl)piperidine-2,6-dione]: the inhibition at 1 µM at GSPT1 [2] (MV4-11, 6 h) was 50 to 75%. Also, the IC50 in the assay with MV-4-11 cells (setting [5]) fell in the range of 100 to 1000 nM. For `O=C1CCC(N2Cc3cc(C(=O)N4CCc5ccc(OC(F)(F)F)cc54)ccc3C2=O)C(=O)N1` (centres unmarked) [Example 81, 3-(1-oxo-5-(6-(trifluoromethoxy)indoline-1-carbonyl)isoindolin-2-yl)piperidine-2,6-dione], in that order: below 50% and above 1000 nM.

As to `COc1cccc2c1CCN2C(=O)c1ccc2c(c1)CN(C1CCC(=O)NC1=O)C2=O` (centres unmarked) [Example 82, 3-(5-(4-methoxyindoline-1-carbonyl)-1-oxoisoindolin-2-yl)piperidine-2,6-dione], at GSPT1 [2] (setting [6]), the inhibition at 1 µM was 50 to 75%. Further, the IC50 in the assay with MV-4-11 cells (setting [5]) is below 100 nM. For the compound `COc1ccc2c(c1)CCN2C(=O)c1ccc2c(c1)CN(C1CCC(=O)NC1=O)C2=O` (centres unmarked) [Example 83, 3-(5-(5-methoxyindoline-1-carbonyl)-1-oxoisoindolin-2-yl)piperidine-2,6-dione], the inhibition at 1 µM on GSPT1 [2] (MV4-11, 6 h) was below 50%. The IC50 in the assay with MV-4-11 cells (setting [5]) was below 100 nM.

Turning to `COc1ccc2c(c1)N(C(=O)c1ccc3c(c1)CN(C1CCC(=O)NC1=O)C3=O)CC2` (centres unmarked) [Example 84, 3-(5-(6-methoxyindoline-1-carbonyl)-1-oxoisoindolin-2-yl)piperidine-2,6-dione], on GSPT1 [2] (MV4-11, 6 h), the inhibition at 1 µM was below 50%. In the assay on MV-4-11 cells (setting [5]), the IC50 lay in the range of 100 to 1000 nM.

Take `COc1cccc2c1N(C(=O)c1ccc3c(c1)CN(C1CCC(=O)NC1=O)C3=O)CC2` (centres unmarked) [Example 85, 3-(5-(7-methoxyindoline-1-carbonyl)-1-oxoisoindolin-2-yl)piperidine-2,6-dione]: the inhibition at 1 µM on GSPT1 [2] (setting [6]) is below 50%. Further, the IC50 in the assay with MV-4-11 cells (setting [5]) was in the range of 100 to 1000 nM. As to `O=C1CCC(N2Cc3cc(C(=O)N4CCc5c(Cl)ccc(F)c54)ccc3C2=O)C(=O)N1` (centres unmarked) [Example 86, 3-(5-(4-chloro-7-fluoroindoline-1-carbonyl)-1-oxoisoindolin-2-yl)piperidine-2,6-dione], the IC50 in the assay with HCC827 cells (HCC827, 72 h) is above 1000 nM. Take `O=C1CCC(N2Cc3cc(C(=O)N4Cc5cccc(F)c5C4)ccc3C2=O)C(=O)N1` (centres unmarked) [Example 87, 3-(5-(4-fluoroisoindoline-2-carbonyl)-1-oxoisoindolin-2-yl)piperidine-2,6-dione]: the IC50 with HCC827 cells (HCC827, 72 h) is below 1000 nM. Also, the inhibition at 1 µM at GSPT1 [3] is above 75%.

Regarding `O=C1CCC(N2Cc3cc(C(=O)Nc4nsc5ccccc45)ccc3C2=O)C(=O)N1` (centres unmarked) [Example 89, N-(benzo[d]isothiazol-3-yl)-2-(2,6-dioxopiperidin-3-yl)-1-oxoisoindoline-5-carboxamide], in the assay on HCC827 cells (setting [7]), the IC50 is above 1000 nM. In the case of `O=C1CCC(N2Cc3cc(C(=O)Nc4cscn4)ccc3C2=O)C(=O)N1` (centres unmarked) [Example 90, 2-(2,6-dioxopiperidin-3-yl)-1-oxo-N-(thiazol-4-yl)isoindoline-5-carboxamide], in the assay on HCC827 cells (setting [7]), the IC50 is above 1000 nM. Regarding `O=C1CCC(N2Cc3cc(C(=O)N4CCc5c(F)cc(F)cc54)ccc3C2=O)C(=O)N1` (centres unmarked) [Example 92, 3-(5-(4,6-difluoroindoline-1-carbonyl)-1-oxoisoindolin-2-yl)piperidine-2,6-dione], the IC50 in the assay with A549 cells was below 1000 nM.

Consider `O=C1CCC(N2Cc3cc(C(=O)Nc4ccccc4)ccc3C2=O)C(=O)N1` (centres unmarked) [Example 93, 2-(2,6-dioxopiperidin-3-yl)-1-oxo-N-phenylisoindoline-5-carboxamide], for which, in the assay with A549 cells, the IC50 fell in the range of 1000 to 30000 nM.

Consider `O=C1CCC(N2Cc3cc(C(=O)Nc4ccccc4F)ccc3C2=O)C(=O)N1` (centres unmarked) [Example 94, 2-(2,6-dioxopiperidin-3-yl)-N-(2-fluorophenyl)-1-oxoisoindoline-5-carboxamide], for which, in the assay with A549 cells, the IC50 is above 1000 nM. `O=C1CCC(N2Cc3cc(C(=O)Nc4cccc5cccnc45)ccc3C2=O)C(=O)N1` (centres unmarked) [Example 95, 2-(2,6-dioxopiperidin-3-yl)-1-oxo-N-(quinolin-8-yl)isoindoline-5-carboxamide]: the IC50 in the assay with A549 cells was above 1000 nM.
